From US12404289B2 (Gilead Sciences, Inc., priority 2020, dated 2025)

Tests used:
[1] = system: SARS-CoV-2; experiment: SARS-CoV-2 antiviral assay (A549-hACE2, Nano luciferase); type: cell-based; conditions: Severe acute respiratory syndrome coronavirus 2, 48 h, A549-hACE2 cells, SARS-CoV2-Nano, MOI 0.025, 48 h; Table 4; read-out: EC50 SARS CoV2
[2] = system: Respiratory syncytial virus (RSV) strain A2; experiment: Hep-2 RSV2 384-well assay (EC50-HEP2-384); type: cell-based; conditions: HEp-2 cells, RSV A2, MOI=4, 4 days, Table 3
[3] = human respiratory syncytial virus, HEp-2, 96 h

Structure (SMILES)	EC50 [1]	EC50 [2, 3]	EC50 [2]
CC(=O)O[C@H]1[C@@H](OC(C)=O)[C@](C#N)(c2ccc3c(N)ncnn23)O[C@@H]1COP(=O)(N[C@@H](C)CC(=O)OC1CCC1)Oc1ccc(C(C)(C)C)cc1 (stereo partly drawn) [Example 166, (2R,3R,4R,5R)-2-(4-aminopyrrolo[2,1-f][1,2,4]triazin-7-yl)-5-((((4-(tert-butyl)phenoxy)(((S)-4-cyclobutoxy-4-oxobutan-2-yl)amino)phosphoryl)oxy)methyl)-2-cyanotetrahydrofuran-3,4-diyl Diacetate]	10000 nM	5000 nM	–
CCC(C)(C)CCOC(=O)[C@H](C)NP(=O)(OC[C@H]1O[C@@](C#N)(c2ccc3c(N)ncnn23)[C@H](OC(C)=O)[C@@H]1OC(C)=O)Oc1ccc(C(C)(C)C)cc1 (stereo partly drawn) [Example 159, (2R,3R,4R,5R)-2-(4-aminopyrrolo[2,1-f][1,2,4]triazin-7-yl)-5-((((4-(tert-butyl)phenoxy)(((S)-1-((3,3-dimethylpentyl)oxy)-1-oxopropan-2-yl)amino)phosphoryl)oxy)methyl)-2-cyanotetrahydrofuran-3,4-diyl Diacetate]	369 nM	79.3 nM	–
CC(=O)O[C@H]1[C@@H](OC(C)=O)[C@](C#N)(c2ccc3c(N)ncnn23)O[C@@H]1COP(=O)(N[C@@H](C)C(=O)OCC1CCCCC1)Oc1ccc(C(C)(C)C)cc1 (stereo partly drawn) [Example 163, (2R,3R,4R,5R)-2-(4-aminopyrrolo[2,1-f][1,2,4]triazin-7-yl)-5-((((4-(tert-butyl)phenoxy)(((S)-1-(cyclohexylmethoxy)-1-oxopropan-2-yl)amino)phosphoryl)oxy)methyl)-2-cyanotetrahydrofuran-3,4-diyl Diacetate]	378 nM	68 nM	–
CC(C)C(=O)O[C@H]1[C@@H](OC(=O)C(C)C)[C@](C#N)(c2ccc3c(N)ncnn23)O[C@@H]1COP(=O)(N[C@@H](C)C(=O)OC1CC(C)(C)C1)Oc1ccc(C(C)(C)C)cc1 (stereo partly drawn) [Example 94, (2R,3R,4R,5R)-2-(4-aminopyrrolo[2,1-f][1,2,4]triazin-7-yl)-5-((((4-(tert-butyl)phenoxy)(((S)-1-(3,3-dimethylcyclobutoxy)-1-oxopropan-2-yl)amino)phosphoryl)oxy)methyl)-2-cyanotetrahydrofuran-3,4-diyl bis(2-methylpropanoate)]	370 nM	84.5 nM	–
CCC(CC)COC(=O)[C@H](C)NP(=O)(OC[C@H]1O[C@@](C#N)(c2ccc3c(N)ncnn23)[C@H](O)[C@@H]1O)Oc1ccc(N2CCOCC2)cc1 (stereo partly drawn) [Example 92, 2-ethylbutyl ((((2R,3S,4R,5R)-5-(4-aminopyrrolo[2,1-f][1,2,4]triazin-7-yl)-5-cyano-3,4-dihydroxytetrahydrofuran-2-yl)methoxy)(4-morpholinophenoxy)phosphoryl)-L-alaninate]	–	2490 nM	–
CC(C)C(=O)O[C@H]1[C@@H](OC(=O)C(C)C)[C@](C#N)(c2ccc3c(N)ncnn23)O[C@@H]1COP(=O)(N[C@@H](C)C(=O)OC1CC2(CCCC2)C1)Oc1ccc(C(C)(C)C)cc1 (stereo partly drawn) [Example 100b, (2R,3R,4R,5R)-2-(4-aminopyrrolo[2,1-f][1,2,4]triazin-7-yl)-5-((((4-(tert-butyl)phenoxy)(((S)-1-oxo-1-(spiro[3.4]octan-2-yloxy)propan-2-yl)amino)phosphoryl)oxy)methyl)-2-cyanotetrahydrofuran-3,4-diyl bis(2-methylpropanoate)]	–	–	95.5 nM
CCC(CC)COC(=O)[C@H](C)NP(=O)(OC[C@H]1O[C@@](C#N)(c2ccc3c(N)ncnn23)[C@H](O)[C@@H]1O)Oc1ccc(C#N)cc1 (stereo partly drawn) [Example 39, 2-ethylbutyl ((((2R,3S,4R,5R)-5-(4-aminopyrrolo[2,1-f][1,2,4]triazin-7-yl)-5-cyano-3,4-dihydroxytetrahydrofuran-2-yl)methoxy)(4-cyanophenoxy)phosphoryl)-L-alaninate]	–	1600 nM	–
C[C@H](NP(=O)(OC[C@H]1O[C@@](C#N)(c2ccc3c(N)ncnn23)[C@H](O)[C@@H]1O)Oc1ccc(C(C)(C)C)cc1)C(=O)OC1CC2(CCCC2)C1 (stereo partly drawn) [Example 97b, Spiro[3.4]octan-2-yl ((((2R,3S,4R,5R)-5-(4-aminopyrrolo[2,1-f][1,2,4]triazin-7-yl)-5-cyano-3,4-dihydroxytetrahydrofuran-2-yl)methoxy)(4-(tert-butyl)phenoxy)phosphoryl)-L-alaninate]	–	–	106 nM
CCC(CC)COC(=O)[C@H](C)N[P@@](=O)(OC[C@H]1O[C@@](C#N)(c2ccc3c(N)ncnn23)[C@H](OC(=O)C(C)C)[C@@H]1OC(=O)C(C)C)Oc1cccc2c1CCCC2 [Example 146, (2R,3R,4R,5R)-2-(4-aminopyrrolo[2,1-f][1,2,4]triazin-7-yl)-2-cyano-5-((((R)—(((S)-1-(2-ethylbutoxy)-1-oxopropan-2-yl)amino)((5,6,7,8-tetrahydronaphthalen-1-yl)oxy)phosphoryl)oxy)methyl)tetrahydrofuran-3,4-diyl bis(2-methylpropanoate)]	–	–	459 nM
CCC(CC)COC(=O)[C@H](C)NP(=O)(OC[C@H]1O[C@@](C#N)(c2ccc3c(N)ncnn23)[C@H](O)[C@@H]1O)Oc1ccc(OC2CCCCC2)cc1 (stereo partly drawn) [Example 140, 2-ethylbutyl ((((2R,3S,4R,5R)-5-(4-aminopyrrolo[2,1-f][1,2,4]triazin-7-yl)-5-cyano-3,4-dihydroxytetrahydrofuran-2-yl)methoxy)(4-(cyclohexyloxy)phenoxy)phosphoryl)-L-alaninate]	–	302 nM	–
CC(C)C(=O)O[C@H]1[C@@H](OC(=O)C(C)C)[C@](C#N)(c2ccc3c(N)ncnn23)O[C@@H]1COP(=O)(N[C@@H](C)C(=O)OCc1ccccc1)Oc1ccc(C(C)(C)C)cc1 (stereo partly drawn) [Example 58, (2R,3R,4R,5R)-2-(4-aminopyrrolo[2,1-f][1,2,4]triazin-7-yl)-5-((((((S)-1-(benzyloxy)-1-oxopropan-2-yl)amino)(4-(tert-butyl)phenoxy)phosphoryl)oxy)methyl)-2-cyanotetrahydrofuran-3,4-diyl bis(2-methylpropanoate)]	–	71.5 nM	–
CCC(CC)COC(=O)[C@H](C)NP(=O)(OC[C@H]1O[C@@](C#N)(c2ccc3c(N)ncnn23)[C@H](OC(=O)C(C)C)[C@@H]1OC(=O)C(C)C)Oc1ccc(C#N)cc1 (stereo partly drawn) [Example 40, (2R,3R,4R,5R)-2-(4-aminopyrrolo[2,1-f][1,2,4]triazin-7-yl)-2-cyano-5-((((4-cyanophenoxy)(((S)-1-(2-ethylbutoxy)-1-oxopropan-2-yl)amino)phosphoryl)oxy)methyl)tetrahydrofuran-3,4-diyl bis(2-methylpropanoate)]	–	226 nM	–
COC(C)COC(=O)[C@H](C)NP(=O)(OC[C@H]1O[C@@](C#N)(c2ccc3c(N)ncnn23)[C@H](OC(C)=O)[C@@H]1OC(C)=O)Oc1ccc(C(C)(C)C)cc1 (stereo partly drawn) [Example 161, (2R,3R,4R,5R)-2-(4-aminopyrrolo[2,1-f][1,2,4]triazin-7-yl)-5-((((4-(tert-butyl)phenoxy)(((2S)-1-(2-methoxypropoxy)-1-oxopropan-2-yl)amino)phosphoryl)oxy)methyl)-2-cyanotetrahydrofuran-3,4-diyl Diacetate]	–	113 nM	–
CCC(C)(C)CCOC(=O)[C@H](C)NP(=O)(OC[C@H]1O[C@@](C#N)(c2ccc3c(N)ncnn23)[C@H](OC(=O)C(C)C)[C@@H]1OC(=O)C(C)C)Oc1ccc(C(C)(C)C)cc1 (stereo partly drawn) [Example 160, (2R,3R,4R,5R)-2-(4-aminopyrrolo[2,1-f][1,2,4]triazin-7-yl)-5-((((4-(tert-butyl)phenoxy)(((S)-1-((3,3-dimethylpentyl)oxy)-1-oxopropan-2-yl)amino)phosphoryl)oxy)methyl)-2-cyanotetrahydrofuran-3,4-diyl bis(2-methylpropanoate)]	–	219 nM	–
